Results: patent US20230139171A1 (SITA Information Networking Computing UK Limited, priority 2019, published 2023)

What was measured:
Format in all cases: cell-based
[1] = target: T1, human TLR8 (Homo sapiens, UniProt Q9NR97); experiment: TLR8 inhibition reporter assay (HEK-Blue cells, SEAP reporter, R848 stimulation); settings: HEK-Blue cells overexpressing human TLR8, SEAP reporter, R848 15.9 μM; read-out: TLR8 IC50
T1 construct: host or cells: HEK-Blue cells
T1 sequence (Q9NR97 27-1041): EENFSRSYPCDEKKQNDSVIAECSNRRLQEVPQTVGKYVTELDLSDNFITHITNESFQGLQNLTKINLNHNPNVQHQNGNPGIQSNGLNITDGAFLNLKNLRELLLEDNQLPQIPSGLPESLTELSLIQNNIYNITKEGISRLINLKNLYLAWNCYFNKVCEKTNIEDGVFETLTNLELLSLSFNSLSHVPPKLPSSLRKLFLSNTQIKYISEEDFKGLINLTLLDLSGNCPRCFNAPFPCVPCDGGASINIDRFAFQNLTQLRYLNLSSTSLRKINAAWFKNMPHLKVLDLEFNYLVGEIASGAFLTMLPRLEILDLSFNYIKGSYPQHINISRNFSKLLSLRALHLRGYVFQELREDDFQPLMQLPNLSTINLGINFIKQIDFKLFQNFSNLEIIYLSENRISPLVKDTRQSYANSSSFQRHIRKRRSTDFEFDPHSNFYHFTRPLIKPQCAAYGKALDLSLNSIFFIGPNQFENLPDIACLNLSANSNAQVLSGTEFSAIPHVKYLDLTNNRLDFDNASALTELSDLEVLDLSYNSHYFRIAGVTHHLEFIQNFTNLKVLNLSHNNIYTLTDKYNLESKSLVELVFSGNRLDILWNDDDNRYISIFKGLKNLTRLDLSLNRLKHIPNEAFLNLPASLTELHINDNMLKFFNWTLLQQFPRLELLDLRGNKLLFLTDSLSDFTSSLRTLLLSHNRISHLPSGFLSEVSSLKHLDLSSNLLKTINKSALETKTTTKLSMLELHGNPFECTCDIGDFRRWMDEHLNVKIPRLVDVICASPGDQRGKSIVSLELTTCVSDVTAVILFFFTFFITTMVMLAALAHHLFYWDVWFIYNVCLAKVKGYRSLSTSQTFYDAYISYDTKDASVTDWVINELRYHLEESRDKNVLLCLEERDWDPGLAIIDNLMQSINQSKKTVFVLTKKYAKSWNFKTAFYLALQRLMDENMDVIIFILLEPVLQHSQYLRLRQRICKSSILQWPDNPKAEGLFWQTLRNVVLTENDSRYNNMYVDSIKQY
Outline: (§1)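 Dose–response from 0.05 nM to 50 μM was run in HEK-Blue human TLR7, TLR8 and TLR9 reporter cells. After 30 min at room temperature with compound, ligand was added (TLR7 gardiquimod 7.5 μM; TLR8 R848 15.9 μM; TLR9 ODN2006 5 nM) and SEAP measured next day, at 22 h.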

[2] = target: T2, human TLR9 (Homo sapiens, UniProt Q9NR96); experiment: TLR9 inhibition reporter assay (HEK-Blue cells, SEAP reporter, ODN2006 stimulation); settings: HEK-Blue cells overexpressing human TLR9, SEAP reporter, ODN2006 5 nM
T2 construct: host or cells: HEK-Blue cells
T2 sequence (Q9NR96 26-1032): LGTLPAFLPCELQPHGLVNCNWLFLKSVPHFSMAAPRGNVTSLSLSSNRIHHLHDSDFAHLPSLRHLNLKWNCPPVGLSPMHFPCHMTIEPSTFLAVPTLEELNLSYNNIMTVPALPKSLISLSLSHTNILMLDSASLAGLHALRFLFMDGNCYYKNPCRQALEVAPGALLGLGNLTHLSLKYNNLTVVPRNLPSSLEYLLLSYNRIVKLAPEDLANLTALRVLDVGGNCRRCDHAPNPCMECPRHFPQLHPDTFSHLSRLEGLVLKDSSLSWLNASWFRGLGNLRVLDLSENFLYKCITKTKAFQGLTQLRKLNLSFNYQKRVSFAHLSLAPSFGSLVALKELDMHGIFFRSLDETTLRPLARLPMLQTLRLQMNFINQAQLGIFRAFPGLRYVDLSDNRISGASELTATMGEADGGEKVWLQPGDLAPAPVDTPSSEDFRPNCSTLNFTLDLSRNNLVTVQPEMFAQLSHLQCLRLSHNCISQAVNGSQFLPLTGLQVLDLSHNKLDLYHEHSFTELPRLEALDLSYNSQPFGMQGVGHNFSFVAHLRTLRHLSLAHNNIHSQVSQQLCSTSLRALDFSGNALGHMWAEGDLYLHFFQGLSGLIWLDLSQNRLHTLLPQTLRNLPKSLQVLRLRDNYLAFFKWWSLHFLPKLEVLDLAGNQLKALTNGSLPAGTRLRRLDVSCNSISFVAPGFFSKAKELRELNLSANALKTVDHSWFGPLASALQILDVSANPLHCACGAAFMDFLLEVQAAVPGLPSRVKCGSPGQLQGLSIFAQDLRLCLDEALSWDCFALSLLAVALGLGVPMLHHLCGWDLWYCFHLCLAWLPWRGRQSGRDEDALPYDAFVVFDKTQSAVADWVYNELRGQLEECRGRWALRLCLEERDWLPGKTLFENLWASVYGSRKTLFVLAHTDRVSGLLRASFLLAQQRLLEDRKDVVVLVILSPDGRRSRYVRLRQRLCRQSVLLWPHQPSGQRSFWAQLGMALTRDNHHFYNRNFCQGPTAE
Outline: as §1

[3] = target: T3, human TLR7 (Homo sapiens, UniProt Q9NYK1); experiment: TLR7 inhibition reporter assay (HEK-Blue cells, SEAP reporter, gardiquimod stimulation); settings: HEK-Blue cells overexpressing human TLR7, SEAP reporter, gardiquimod 7.5 μM; read-out: TLR7 IC50
T3 construct: host or cells: HEK-Blue cells
T3 sequence (Q9NYK1 27-1049): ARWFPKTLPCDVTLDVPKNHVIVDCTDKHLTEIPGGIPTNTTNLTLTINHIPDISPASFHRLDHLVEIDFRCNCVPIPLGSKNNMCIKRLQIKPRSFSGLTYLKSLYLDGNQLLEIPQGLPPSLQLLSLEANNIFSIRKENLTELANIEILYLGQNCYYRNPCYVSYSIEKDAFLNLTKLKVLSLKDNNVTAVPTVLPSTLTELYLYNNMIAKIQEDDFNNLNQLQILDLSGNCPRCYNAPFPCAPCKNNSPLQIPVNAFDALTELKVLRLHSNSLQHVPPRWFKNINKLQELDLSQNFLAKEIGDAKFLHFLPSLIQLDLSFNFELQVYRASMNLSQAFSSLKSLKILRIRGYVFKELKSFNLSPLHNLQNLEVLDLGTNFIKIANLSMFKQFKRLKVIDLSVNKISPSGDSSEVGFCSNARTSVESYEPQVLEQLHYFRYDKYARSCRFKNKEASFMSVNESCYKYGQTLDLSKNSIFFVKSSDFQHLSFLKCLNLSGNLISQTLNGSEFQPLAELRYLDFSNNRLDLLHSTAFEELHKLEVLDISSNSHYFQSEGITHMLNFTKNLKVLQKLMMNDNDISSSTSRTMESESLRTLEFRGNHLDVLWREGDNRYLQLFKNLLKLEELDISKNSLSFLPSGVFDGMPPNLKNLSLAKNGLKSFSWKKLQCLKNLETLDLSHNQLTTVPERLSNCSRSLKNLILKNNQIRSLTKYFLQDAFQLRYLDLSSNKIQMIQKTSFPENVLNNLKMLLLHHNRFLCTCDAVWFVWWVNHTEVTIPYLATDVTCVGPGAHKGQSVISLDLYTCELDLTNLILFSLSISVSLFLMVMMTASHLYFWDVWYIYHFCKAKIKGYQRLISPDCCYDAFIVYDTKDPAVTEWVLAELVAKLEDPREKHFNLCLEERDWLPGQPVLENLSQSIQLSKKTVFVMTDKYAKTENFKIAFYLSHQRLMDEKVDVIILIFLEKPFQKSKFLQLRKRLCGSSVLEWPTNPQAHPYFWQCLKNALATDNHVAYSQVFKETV
Outline: as §1

`Cc1c(-c2[nH]c3sc(N4CCC(NC5(C)COC5)CC4)nc3c2C(C)C)cn2ncnc2c1C` [Example 290, 1-(5-(7,8-dimethyl-[1,2,4]triazolo[1,5-a]pyridin-6-yl)-6-isopropyl-4H-pyrrolo[3,2-d]thiazol-2-yl)-N-(3-methyloxetan-3-yl)piperidin-4-amine] showed an IC50 [1] of 1.09 nM, an IC50 [2] of 22100 nM and an IC50 [3] of 8.56 nM.

`Cc1c(-c2[nH]c3sc(N4CCC(NCC(C)(C)O)CC4)nc3c2C(C)C)cn2ncnc2c1C` [Example 291, 1-((1-(5-(7,8-dimethyl-[1,2,4]triazolo[1,5-a]pyridin-6-yl)-6-isopropyl-4H-pyrrolo[3,2-d]thiazol-2-yl)piperidin-4-yl)amino)-2-methylpropan-2-ol] was tested, and the IC50 [1] was 0.39 nM, the IC50 [2] was 16800 nM and the IC50 [3] was 7.65 nM.

`Cc1c(-c2[nH]c3sc(N4CCC(N(C)C(C)C)CC4)nc3c2C(C)C)cn2ncnc2c1C` [Example 292, 1-(5-(7,8-dimethyl-[1,2,4]triazolo[1,5-a]pyridin-6-yl)-6-isopropyl-4H-pyrrolo[3,2-d]thiazol-2-yl)-N-isopropyl-N-methylpiperidin-4-amine] gave an IC50 [1] of 0.46 nM, an IC50 [2] of 7520 nM and an IC50 [3] of 3.18 nM.

For `Cc1c(-c2[nH]c3sc(N4CCC(NC5CCC5)CC4)nc3c2C(C)C)cn2ncnc2c1C` [Example 293, N-cyclobutyl-1-(5-(7,8-dimethyl-[1,2,4]triazolo[1,5-a]pyridin-6-yl)-6-isopropyl-4H-pyrrolo[3,2-d]thiazol-2-yl) piperidin-4-amine], the IC50 [1] was 0.38 nM, the IC50 [2] was 6650 nM and the IC50 [3] was 2.98 nM.

`COC(C)(C)CNC1CCN(c2nc3c(C(C)C)c(-c4cn5ncnc5c(C)c4C)[nH]c3s2)CC1` [Example 294, 1-(5-(7,8-dimethyl-[1,2,4]triazolo[1,5-a]pyridin-6-yl)-6-isopropyl-4H-pyrrolo[3,2-d]thiazol-2-yl)-N-(2-methoxy-2-methylpropyl)piperidin-4-amine] gave an IC50 [1] of 0.42 nM, an IC50 [2] of 8990 nM and an IC50 [3] of 7.97 nM.

With `Cc1c(-c2[nH]c3sc(N4CCC(NCC5(C)COC5)CC4)nc3c2C(C)C)cn2ncnc2c1C` [Example 295, 1-(5-(7,8-dimethyl-[1,2,4]triazolo[1,5-a]pyridin-6-yl)-6-isopropyl-4H-pyrrolo[3,2-d]thiazol-2-yl)-N-((3-methyloxetan-3-yl)methyl) piperidin-4-amine] the IC50 [1] was 0.28 nM, the IC50 [2] was 9710 nM and the IC50 [3] was 4.94 nM.

`Cc1c(-c2[nH]c3sc(N4CCC(NC5COC5)CC4)nc3c2C(C)C)cn2ncnc2c1C` [Example 296, 1-(5-(7,8-dimethyl-[1,2,4]triazolo[1,5-a]pyridin-6-yl)-6-isopropyl-4H-pyrrolo[3,2-d]thiazol-2-yl)-N-(oxetan-3-yl)piperidin-4-amine] was tested, and the IC50 [1] was 0.73 nM, the IC50 [2] was 33800 nM and the IC50 [3] was 3.45 nM.

`Cc1c(-c2[nH]c3sc(N4CCC(NC(C)C)CC4)nc3c2C(C)C)cn2ncnc2c1C` [Example 297, 1-(5-(7,8-dimethyl-[1,2,4]triazolo[1,5-a]pyridin-6-yl)-6-isopropyl-4H-pyrrolo[3,2-d]thiazol-2-yl)-N-isopropylpiperidin-4-amine] was tested, and the IC50 [1] was 0.27 nM, the IC50 [2] was 8910 nM and the IC50 [3] was 2.25 nM.

In the case of `CCN(C)C1CCN(c2nc3c(C(C)C)c(-c4cn5ncnc5c(C)c4C)[nH]c3s2)CC1` [Example 298, 1-(5-(7,8-dimethyl-[1,2,4]triazolo[1,5-a]pyridin-6-yl)-6-isopropyl-4H-pyrrolo[3,2-d]thiazol-2-yl)-N-ethyl-N-methylpiperidin-4-amine], the IC50 [1] is reported as 0.43 nM, the IC50 [2] is reported as 7410 nM and the IC50 [3] is reported as 1.56 nM.

Molecule `Cc1c(-c2[nH]c3sc(N4CCC(N)CC4)nc3c2C(C)C)cn2ncnc2c1C` [Example 299, 1-(5-(7,8-dimethyl-[1,2,4]triazolo[1,5-a]pyridin-6-yl)-6-isopropyl-4H-pyrrolo[3,2-d]thiazol-2-yl)piperidin-4-amine] has an IC50 [1] of 0.72 nM, an IC50 [2] of 12700 nM and an IC50 [3] of 1.42 nM.
